The text below walks through data of paper PMC4573928 (Cancer chemotherapy and pharmacology, 2015).

“And” between values parts separate entries of the source, which are not always exact repeats. Equal entries are not always repeated. “Also recorded” adds a separate entry of the source.

For data set [1] the following is noted: cited from earlier work.
A short description of data set [2]: Plasma pharmacokinetics of FdCyd, metabolites and THU in cynomolgus monkeys. The note with it: for AUC(0-inf): AUC0-inf; for AUC(0-t): AUC0-t; for Detection of metabolites in plasma: four animals; for Concentrations, fold lower than those of parent FdCyd: PO FdCyd 1 h after 500 mg/kg PO THU; for Detection in plasma: PO FdCyd at 1 and 10 mg/kg 1 h after PO THU.
In data set [3] the test system is cynomolgus monkeys. Particulars: THU (500 mg/kg) and FdCyd (0.1, 1.0 or 10.0 mg/kg) PO QDx3 every week, 3 or 4 repeat 1 week cycles.
The nature of data set [4]: Human pilot pharmacokinetic study of IV and PO FdCyd and THU. The note with it: humans; after PO dosing; FC detected in 4 out of the 7 patients.
Setting [5] is: both, cynomolgus monkey, plasma, iv, analyte FdCyd, FdCyd 8 mg/kg 3 h IV infusion with THU 30 mg/kg IV, N=2, mean (±SD).
Where [6] appears, read: both, cynomolgus monkey, plasma, po, 10 mg/kg, analyte FdCyd, FdCyd 10 mg/kg PO 1 h after THU 150 mg/kg PO, N=4, mean (±SD).
[7] abbreviates: both, cynomolgus monkey, plasma, po, 10 mg/kg, analyte FdCyd, FdCyd 10 mg/kg PO 1 h after THU 500 mg/kg PO, N=4, mean (±SD).
Where [8] appears, read: monkeys, FdCyd 0.1 mg/kg PO 1 h after 500 mg/kg THU PO.

Consider `Nc1ncn([C@@H]2O[C@H](CO)[C@@H](O)[C@H]2O)c(=O)n1` [5-aza-cytidine], for which the Chemical stability result in data set [1] is “unstable”.

Take `Nc1ncn([C@H]2C[C@H](O)[C@@H](CO)O2)c(=O)n1` [decitabine]: the Chemical stability result in data set [1] was “unstable”.

Take `O=c1[nH]c(=O)n([C@@H]2O[C@H](CO)[C@@H](O)[C@H]2O)cc1F` [FUrd, 5-fluorouridine]: the “FUrd peaks in plasma samples” value in data set [2] (any of the samples, detectable down to approximately 30 ng/mL) was “no FUrd peaks were detected”.

In general, AUC(0-inf) refers to the area under the concentration-time curve extrapolated to infinity. For orientation: AUC(0-t) means exposure summed from dosing to a finite time, without extrapolation to infinity. For orientation: Cmax means the highest concentration seen after dosing. A word on the Tmax: it is the time at which the peak concentration occurs. The half-life is how long it takes for the measured level to halve. By CL/F is commonly meant the apparent clearance, not corrected for the fraction that reaches the circulation. For orientation: bioavailability means the share of a dose that reaches the circulation, judged against a reference dose that is usually intravenous. The clearance is the rate of elimination divided by the concentration. For `Nc1nc(=O)n([C@H]2C[C@H](O)[C@@H](CO)O2)cc1F` [FdCyd, 5-fluoro-2’-deoxycytidine], the results for the AUC(0-inf) in data set [2] (setting [5]), in data set [2] (setting [6]) and in data set [2] (setting [7]) were 17800 ng·h/mL, 1930 ng·h/mL and 5400 ng·h/mL, respectively. Besides, the AUC(0-t) in data set [2] (setting [5]) was 17800 ng·h/mL; in data set [2] (setting [6]) it was 1870 ng·h/mL; in data set [2] (setting [7]) it was 5280 ng·h/mL. Moreover, the results for the Cmax in data set [2] (setting [5]), in data set [2] (setting [6]) and in data set [2] (setting [7]) were 5690 ng/mL, 1180 ng/mL and 2030 ng/mL, respectively. Also, the Tmax in data set [2] (both, cynomolgus monkey, plasma, iv, Tmax, analyte FdCyd, FdCyd 8 mg/kg 3 h IV infusion with THU 30 mg/kg IV, N=2, mean (±SD)) was 1.75 h; in data set [2] (both, cynomolgus monkey, plasma, po, 0.1 mg/kg, Tmax for FdCyd (mean), monkeys, FdCyd 0.1 mg/kg PO 1 h after 500 mg/kg THU PO) it was 0.25 h; in data set [2] (both, cynomolgus monkey, plasma, po, 1 mg/kg, Tmax for FdCyd (mean), monkeys, FdCyd 1 mg/kg PO 1 h after 500 mg/kg THU PO) it was 0.5 h; in data set [2] (both, cynomolgus monkey, plasma, po, 10 mg/kg, Tmax for FdCyd (mean), monkeys, FdCyd 10 mg/kg PO 1 h after 500 mg/kg THU PO) it was 1.38 h; in data set [2] (both, cynomolgus monkey, plasma, po, 10 mg/kg, Tmax, analyte FdCyd, FdCyd 10 mg/kg PO 1 h after THU 150 mg/kg PO, N=4, mean (±SD)), 1.25 h; in data set [2] (both, cynomolgus monkey, plasma, po, 10 mg/kg, Tmax, analyte FdCyd, FdCyd 10 mg/kg PO 1 h after THU 500 mg/kg PO, N=4, mean (±SD)) it was 1.38 h. Also, the half-life in data set [2] (both, cynomolgus monkey, plasma, iv, T½, analyte FdCyd, FdCyd 8 mg/kg 3 h IV infusion with THU 30 mg/kg IV, N=2, mean (±SD)) was 52.2 min; in data set [2] (both, cynomolgus monkey, plasma, po, 10 mg/kg, T½, analyte FdCyd, FdCyd 10 mg/kg PO 1 h after THU 150 mg/kg PO, N=4, mean (±SD)) it was 73.8 min; in data set [2] (both, cynomolgus monkey, plasma, po, 10 mg/kg, T½, analyte FdCyd, FdCyd 10 mg/kg PO 1 h after THU 500 mg/kg PO, N=4, mean (±SD)) it was 37.8 min; in data set [2] (both, cynomolgus monkey, plasma, po, Plasma terminal half-life of FdCyd, monkeys, range over groups receiving 0.1, 1.0, and 10 mg/kg PO FdCyd 1 h after 500 mg/kg PO THU), 24 to 162 min; in data set [2] (both, cynomolgus, cynomolgus monkey, plasma, iv, FdCyd half-life, monkeys, after IV FdCyd and THU administration, range), 22 to 56 min. Also, the results for the apparent clearance CL/F in data set [2] (setting [6]) and in data set [2] (setting [7]) were 126 mL/min/kg and 53 mL/min/kg, respectively. The bioavailability is 8.9% in data set [2] (both, cynomolgus monkey, plasma, po, 10 mg/kg, F (PO bioavailability), analyte FdCyd, FdCyd 10 mg/kg PO 1 h after THU 150 mg/kg PO, relative to 4, 8, and 16 mg/kg FdCyd IV with 30 mg/kg THU); 25% in data set [2] (both, cynomolgus monkey, plasma, po, 10 mg/kg, F (PO bioavailability), analyte FdCyd, FdCyd 10 mg/kg PO 1 h after THU 500 mg/kg PO, relative to 4, 8, and 16 mg/kg FdCyd IV with 30 mg/kg THU); 9 to 25% in data set [2] (both, cynomolgus, cynomolgus monkey, plasma, po, FdCyd PO bioavailability after THU, monkeys, range, increased with increasing THU dose). Moreover, the clearance in data set [2] (both, cynomolgus, cynomolgus monkey, plasma, iv) is around 15 mL/min/kg. Besides, in data set [2] (monkeys, 10 mg/kg PO FdCyd without THU, 10 mg/kg), the “Plasma concentrations of FdCyd or downstream metabolites” value is recorded as “not detectable; also recorded: undetectable”. In addition, in data set [2] (monkeys, FdCyd 0.1 mg/kg PO 1 h after 500 mg/kg THU PO, two of four animals), the “Detectable plasma concentrations of FdCyd (range per animal)” value was 22.6 to 117.2 ng/mL and 34.1 to 152.2 ng/mL. Moreover, the “Mortality and dose-limiting toxicity” value in data set [3] is “did not result in any mortality or any signs of dose-limiting toxicity”.

Consider `O=c1[nH]cc(F)c(=O)[nH]1` [FU, 5-fluorouracil], for which the “Detection of metabolites in plasma” value in data set [2] (setting [8]) is listed as “No FU or FC was detected”. Further, in data set [2] (monkeys), the “Concentrations, fold lower than those of parent FdCyd” value is recorded as “approximately 10 fold” and the Detection in plasma result was “detectable plasma concentrations”.

On to `Nc1nc(=O)[nH]cc1F` [FC, 5-fluorocytosine], for which the “Overall maximum plasma concentration of FC observed” value in data set [4] is 36.9 ng/mL. In addition, the FC in plasma entry in data set [2] (monkeys, 10 mg/kg FdCyd PO after 150 mg/kg THU PO) was “no FC was detected”; in data set [2] (monkeys, 10 mg/kg FdCyd PO after 150 mg/kg THU PO, listed as 5-FC), “not after 150 mg/kg THU”; in data set [2] (monkeys, 10 mg/kg FdCyd PO with 500 mg/kg THU PO) it was “Low levels of FC were also detected”; in data set [2] (monkeys, 10 mg/kg FdCyd PO with 500 mg/kg THU PO, listed as 5-FC) it was “observed”. Also, the “Detection of metabolites in plasma” value in data set [2] (setting [8]) is given as “No FU or FC was detected”.

Regarding `O=c1[nH]c(=O)n([C@H]2C[C@H](O)[C@@H](CO)O2)cc1F` [FdUrd, 5-fluoro-2’-deoxyuridine], the “Detection of metabolites in plasma” value in data set [2] (setting [8]) is recorded as “three had detectable plasma concentrations of FdUrd out to 60 min”. Also, in data set [2] (monkeys), the “Concentrations, fold lower than those of parent FdCyd” value was “approximately 10 fold” and the Detection in plasma result was “detectable plasma concentrations”.
